{
  "source": "patent US20170368134A1",
  "about": "“PROTEASOME INHIBITORS FOR TREATING A DISORDER RELATED TO AN ACCUMULATION OF NON-DEGRADED ABNORMAL PROTEIN OR A CANCER” (UNIVERSITÉ D'AIX-MARSEILLE, priority 2015, published 2017)",
  "key": {"[1]": {"test_system": "Act88F-PABPN1-17ala-expressing flies", "experiment": "Wing posture defects in Drosophila OPMD model", "assay_type": "in vivo", "details": "oral in food, from larval stages, Day 3 to Day 11 of adulthood, vs DMSO alone", "procedure": "Drug supplemented food was prepared as follows. Instant Drosophila medium (Carolina Biological Supply Company) was reconstituted in each vial with a solution of 1% yeast in water, supplemented with either increasing concentrations of drug solubilized in DMSO (dimethyl sulfoxide), or DMSO alone. MG132 was purchased from Santa Cruz Biotechnology (SC-201270). Each vial contained 5 ml or 2.5 ml of reconstituted medium, to raise larvae or adults, respectively. Individuals were fed with the drug from larval stages. 70 to 80 first instar larvae were transferred per vial and developed in the same vial up to adulthood; adults were transferred in a new vial with the same concentration of drug. […] Abnormal wing posture was quantified by collecting adult males at birth, pooling five males per vial and scoring abnormal wing position each day by direct observation of the flies through the vials, without anesthesia.\nThe inventors used the Drosophila model in which PABPN1-17ala is expressed constitutively in adult indirect flight muscles from the Act88F-PABPN1-17ala transgene (90), to assay the effect of MG132 in vivo. […] Wing posture defects were recorded from Day 3 to Day 11 of adulthood. The effect of MG132 was quantified by recording the number of Act88F-PABPN1-17ala-expressing flies with abnormal wing posture."}, "[2]": {"test_system": "progerin", "experiment": "Western blot of progerin levels in HGPS fibroblasts", "assay_type": "cell-based, human", "details": "for reduction in progerin amounts: normalized with tubulin, vs DMSO-treated HGPS cells", "experimental": "HGPS fibroblasts (AG01972: person, AG11498: person) were obtained from the Coriell Cell Repository. Cells were cultured in Dulbecco's modified Eagle's medium (Life Technologies) supplemented with 15% fetal bovine serum (Life Technologies), 2 mM L-glutamine (Life Technologies) and 1× penicillin-streptomycin (Life Technologies) at 37° C. in a humidified atmosphere containing 5% CO2. […]\n(§1) Total fibroblast proteins were extracted in 200 μL of NP40 Cell Lysis buffer (Invitrogen, Carlsbad, Calif.) containing Protease and Phosphatase Inhibitor Cocktail (Thermo Scientific). Alternatively, cells were lysed with urea (8 M urea, 5 mM dithiothreitol, 150 mM NaCl, 50 mM Tris-Cl pH 7.5, protease and phosphatase Inhibitor Cocktail (Thermo Scientific)). Cells were sonicated twice (30 sec each), incubated at 4° C. for 30 minutes and then centrifuged at 10,000 g for 10 minutes. Protein concentration was evaluated with the bicinchoninic acid technique (Pierce BCA Protein Assay Kit), absorbance at 562 nm is measured using nanodrop 1000 (Thermo Fisher Scientific Inc.) Equal amounts of proteins (40 μg) were loaded onto 10% Tis-Glycine gel (Criterion™ XT precast gel) using XT Tricine running Buffer (Biorad, USA). After electrophoresis, gels were electro transferred onto nitrocellulose membranes or Immobilon-FL polyvinylidene fluoride membranes (Millipore), blocked in Odyssey Blocking Buffer diluted 1:1 in PBS for 1 hour at room temperature, and incubated overnight at 4° C. or 2 hours at room temperature with various primary antibodies. Blots were washed with TBS-T buffer [20 mM tris (pH 7.4), 150 mM NaCl, and 0.05% Tween 20] and incubated with 1:10,000 IR-Dye 800-conjugated secondary donkey anti-goat or IR-Dye 700-conjugated secondary anti-mouse antibodies (LI-COR Biosciences) in Odyssey blocking buffer (LI-COR Biosciences). For IR-Dye 800 and IR-Dye 700 detection, an Odyssey Infrared Imaging System (LI-COR Biosciences) was used. GAPDH, α-tubulin or β-actin were used as a total cellular protein loading control."}, "[3]": {"test_system": "progerin", "experiment": "Progerin levels in HGPS iPS-derived MSC and VSMC", "assay_type": "cell-based, human", "details": "data not shown", "experimental": "Generation of induced pluripotent stem cells (iPS) by reprogramming was carried out using fibroblasts isolated from HGPS patient biopsies performed in the Assistance Publique Hopitaux de Marseille (13-8243) or provided by Coriell Institute (Camden, USA) (AG01972). Cell lines were reprogrammed to iPSC using Yamanaka's original method based on retrovirus-mediated transfection of four transcription factors, namely Oct3/4, Sox2, c-Myc, and Klf4 (41). The iPSC lines were amplified up to the 15th passage before differentiation.\nHGPS iPSC were grown on STO mouse fibroblasts, inactivated with […] mitomycin C, seeded at 30,000/cm2 and grown as previously described (42). For differentiation, iPSC were differentiated into mesenchymal stem cells (MSC-iPSC) using directed protocols for differentiation previously published (43-45). VSMC were obtained from iPSC by fluorescent-activated cell sorting (FACS) separation of CD31+ cells (46).\nTo determine whether MG132 also influences the level of progerin in other cell lineages, the inventors generated iPSC from HGPS patients' fibroblasts. Mesenchymal Stem Cells (MSC) and Vascular Smooth Muscle Cells (VSMC) derived from HGPS iPSC presented the commonly described abnormalities of HGPS fibroblasts, namely, loss of proliferation capacities, premature senescence and nuclear blebbing (69, 70). […]"}, "[4]": {"test_system": "lamin C", "experiment": "Intramuscular MG132 in Lmna G609G/G609G mice, lamin C in gastrocnemius muscle", "assay_type": "in vivo, mouse", "experimental": "(§2) (A) Lamin A, progerin, lamin C and SRSF-1 specific bands, corresponding to DMSO-treated left muscle (−) and 1 μg/Kg MG132-treated right muscle (+), were quantified by ImageJ software and their expression levels were normalized to GAPDH values.\n(§3) Knock-in mouse model (Lmna^G609G/G609G) carrying the c.1827C>T (p.Gly609Gly) mutation in the endogenous Lmna gene, corresponding to the human HGPS mutation c.1824C>T (p.Gly609Gly) have been described previously (31). MG132 (1 or 10 μg/Kg body weight) was injected under isoflurane anesthesia into the right gastrocnemius muscle of […] homozygous knock-in mice (Lmna^G609G/G609G) 3 times per week for 2 weeks. Contralateral muscle served as control (DMSO). MG132 was dissolved in dimethyl sulfoxide (DMSO) and then diluted in 100 μl sterile phosphate-buffered saline (PBS) for intramuscular injection. […] Animal experiments have been carried out in compliance with the European guidelines for the care and use of laboratory animals (EU directive 2010/63/EU) and in accordance with the recommendations provided by the guide for the care and use of the laboratory animals of the French national Institute for Health and Medical Research (INSERM) and the ethical committee of Aix-Marseille University."}, "[5]": {"test_system": "wild-type first instar larvae", "experiment": "Toxicity of MG132 fed to Drosophila larvae", "assay_type": "in vivo", "details": "600 μM MG132 (in 0.2% DMSO) in the fly medium, 25° C.", "experimental": "(A) The toxicity of MG132 fed to larvae was determined by transferring 80 wild-type first instar larvae into vials containing 5 ml of instant Drosophila medium reconstituted either with increasing concentrations of drug in DMSO, or DMSO alone.\nDrug supplemented food was prepared as follows. Instant Drosophila medium (Carolina Biological Supply Company) was reconstituted in each vial with a solution of 1% yeast in water, supplemented with either increasing concentrations of drug solubilized in DMSO (dimethyl sulfoxide), or DMSO alone. MG132 was purchased from Santa Cruz Biotechnology (SC-201270). Each vial contained 5 ml or 2.5 ml of reconstituted medium, to raise larvae or adults, respectively. Individuals were fed with the drug from larval stages. 70 to 80 first instar larvae were transferred per vial and developed in the same vial up to adulthood; adults were transferred in a new vial with the same concentration of drug. To determine drug toxicity, 80 first instar larvae were transferred into vials containing drug- or DMSO alone-supplemented medium. Individuals reaching adulthood were scored. Abnormal wing posture was quantified by collecting adult males at birth, pooling five males per vial and scoring abnormal wing position each day by direct observation of the flies through the vials, without anesthesia."}, "[6]": {"test_system": "progerin", "experiment": "Intramuscular MG132 in Lmna G609G/G609G mice, progerin in gastrocnemius muscle", "assay_type": "in vivo, mouse", "experimental": "as §2, §3"}, "[7]": {"test_system": "lamin A", "experiment": "Western blot of lamin A protein in HGPS fibroblasts", "assay_type": "cell-based, human", "details": "48 h treatment with MG132 (10 μM)", "experimental": "as §1, with “Blots were washed with TBS-T buffer [20 mM tris (pH 7.4), 150 mM NaCl, and 0.05% Tween 20] and incubated with 1:10,000 IR-Dye 800-conjugated secondary donkey anti-goat or IR-Dye 700-conjugated secondary anti-mouse antibodies (LI-COR Biosciences) in Odyssey blocking buffer (LI-COR Biosciences). For IR-Dye 800 and IR-Dye 700 detection, an Odyssey Infrared Imaging System (LI-COR Biosciences) was used. GAPDH, α-tubulin or β-actin were used as a total cellular protein loading control.” left out"}, "[8]": {"details": "10 μg/kg body weight intramuscular"}},
  "note": "Peptide text beside a SMILES is read from it. * marks the point of attachment. Cbz = O=C(OCc1ccccc1)*",
  "data": [
    {"compound": "CC(C)C[C@@H](C=O)NC(=O)[C@H](CC(C)C)NC(=O)[C@H](CC(C)C)NC(=O)OCc1ccccc1", "note": "[MG132, Z-Leu-Leu-Leu-al] (Cbz-Leu-Leu-Leu-aldehyde)", "values": [
      {"measurement": "number of flies with abnormal wing posture", "setting": "[1]", "value": "significant decrease in the number of flies with abnormal wing posture"},
      {"measurement": "reduction in progerin amounts", "setting": "[2]; 10 μM MG132, 6 h", "value": 31, "unit": "%"},
      {"measurement": "reduction in progerin amounts", "setting": "[2]; 10 μM MG132, 24 h", "value": 58, "unit": "%"},
      {"measurement": "reduction in progerin amounts", "setting": "[2]; 10 μM MG132, 48 h", "value": 65, "unit": "%"},
      {"measurement": "progerin level at longer treatment", "setting": "[2]; cells solubilized with urea, 72 h of MG132 treatment", "value": "progerin reappears after 72 h of treatment"},
      {"measurement": "progerin levels", "setting": "[3]; HGPS fibroblasts, iPS-MSC and iPS-VSMC", "value": "decreased"},
      {"measurement": "concentration from which progerin reduction is significant", "setting": "[3]; iPS-VSMC, progerin immunostaining", "value": "≥ 1.25", "unit": "µM"},
      {"measurement": "lamin C level in treated muscle", "setting": "[4]; 1 μg/Kg intramuscular, change not significant", "value": "decrease of lamin C"},
      {"measurement": "lamin C level in treated muscle", "setting": "[4]; [8]", "value": "decrease in lamin C"},
      {"measurement": "viability (flies reaching adulthood)", "setting": "[5]", "value": "not detrimental for viability"},
      {"measurement": "progerin level in treated muscle", "setting": "[6]; 1 μg/Kg intramuscular, 3 times per week for 2 weeks, vs contralateral muscle", "value": "significant decrease of progerin level"},
      {"measurement": "progerin level in treated muscle", "setting": "[6]; [8]", "value": "significant decrease of progerin levels"},
      {"measurement": "lamin A protein levels", "setting": "[7]", "value": "increased"}
    ]}
  ]
}
